Source: patent US20080038402A1, “RUMINANT ANIMAL FEED FORMULATIONS AND METHODS OF FORMULATING SAME” (priority 2006, published 2008)
Marks after values point to notes of the source that are not given here.

How the values were obtained:
[1] = tested on: rumen fluid; experiment: Example 3c in vitro rumen fluid incubation (gas, DMD, VFA): monensin, organic acid, yeast culture, fermentation solubles; type: cell-based
Description: The measurement of rumen gas production over time is a well described technique (Minson 1998) and is subject to small variation between laboratories. In this laboratory, the substrate employed in all experiments was based on a dried TMR sample. […] The interaction of time by treatment by replicate was used as the error term. Dry matter digestibility was analyzed by ANOVA with treatment as the main effect in the model and treatment by replicate interaction as the error term. VFA parameters were analyzed by ANOVA with treatment as the main effect in the model and treatment by replicate interaction as the error term.
The protocol used in Example 3a was also used in 3c to investigate the additive effects of other RAFA
Statistical summaries were tabulated in Tables 18-20 below for Mean Gas Production (0 to 6 hours incubation), DMD (Dry Matter Digestibility) %, VFA Tot. (Volatile Fatty Acids total moles), Acetic, Propionic, I-Butyric, n-Butyric, Isovaleric, and n-Valeric acids (molar percentages).

[2] = tested on: rumen fluid; experiment: Rumen ammonia level after incubation, by treatment and soy process; type: cell-based, cows; conditions: by treatment
Description: (§1) Temperature, pH, redox on strained and unstrained rumen fluid were measured to assess viability and consistency. The rumen fluid was incubated for 6 hours at 39° C. with (1) control 0.13 g soybean meal (SBM) and 0.13 g TMR food sample; and (2) test 0.13 g Top Soy and 0.13 g TMR. Samples were analyzed for ammonia concentration and substrate disappearance.
This trial further validates the adjustments applied to KB in the method when monensin sodium, Surfactant or Essential Oil are included in the diet. Adjustment factors for each RAFA were calculated as the ratio of additive ammonia production to that of the control and applied to the KB during formulation.

[3] = tested on: rumen fluid; experiment: Concentration and breakdown of VFA in vitro in incubated rumen fluid; type: cell-based, cows; conditions: by treatment
Description: as §1
Concentration and breakdown of volatile fatty acids (VFA) in vitro were tabulated in Table 7, below, as results of statistical analysis across all timepoints.

[4] = tested on: rumen fluid; experiment: Example 3a in vitro rumen fluid incubation (gas, DMD, VFA): monensin, soy oil, Ca salts of soy oil; type: cell-based
Excerpt: One objective of this experiment was to compare these lipid sources (soy oil and calcium salts of soy oil) with each other and in the presence and absence of monensin sodium.
Production of iso-valeric acid and n-valeric acid was also used to estimate the level of protein (specifically branched chain amino acid) degradation in the rumen (Benchaar et al 1998), and results of VFA production can thus be used as an adjustment factor to express the benefit of such additives on protein degradability.
The measurement of rumen gas production over time is a well described technique (Minson 1998) and is subject to small variation between laboratories. In this laboratory, the substrate employed in all experiments was based on a dried TMR sample. Data from gas measurement observations using two replicates (true volume corrected by subtraction of corresponding negative control values at similar time point) was analyzed by ANOVA with time, treatment, and replicate as main effects in the model. The interaction of time by treatment by replicate was used as the error term. Dry matter digestibility was analyzed by ANOVA with treatment as the main effect in the model and treatment by replicate interaction as the error term. VFA parameters were analyzed by ANOVA with treatment as the main effect in the model and treatment by replicate interaction as the error term.
Statistical summaries are given in Tables 10-12 below for Mean Gas Production (0 to 6 hours incubation), DMD (Dry Matter Digestibility) %, VFA Tot. (Volatile Fatty Acids total moles), Acetic, Propionic, Butyric, Isobutyric, Isovaleric, and n-Valeric acids (molar percentages).
This trial further validates the adjustments applied to KB when monensin and soy oil are included in the diet either separately or in combination. Adjustment factors are calculated as the ratio of rumen active feed additive valerate production (i-valeric acid plus n-valeric acid) in the combination treatment to that of the control (TMR with CaSalts of SoyOil). Using this approach, KB can be adjusted by the following factors: • Monensin=6.36/7.20=0.88 • SoyOil=6.95/7.20=0.97 • Monensin+SoyOil=5.40/7.20=0.75

[5] = tested on: rumen fluid; experiment: Redox, pH and dry matter disappearance of rumen fluid incubated 6 hours at 39° C.; type: cell-based, cows; conditions: by treatment
Description: (§2) Rumen fluid was sampled via the fistula using the Geishawer probe according to standard methodology, with sampling done 2 hours pre-feeding, and again at 2, 4, and 6 hours post-feeding at day 19, 20 or 21 of a 21 day feeding period. Fluid was strained through 4 ply cheesecloth into duplicate containers treated with phosphoric acid (preservative). At the end of each feeding period, rumen fluid from the 2 hours pre-feeding sample was placed into a pre-warmed half litre vacuum flask and forwarded for in vitro studies, described below. The vacuum flask was filled and covered immediately after sampling.
as §1

[6] = tested on: rumen fluid; experiment: Rumen gas production in vitro (rumen fluid added to buffer and food source, 0 to 6 hours); type: cell-based; conditions: by treatment of donor cows
Description: as §2
Rumen fluid samples were also added to buffer and food source, and gas production was recorded from time 0 to 6 hours.

[7] = tested on: rumen fluid; experiment: Rumen fluid pH and volatile fatty acids in rumen-fistulated cows (4x4 latin square); type: in vivo
Description: (§3) The use of the RAFA, were compared with an animal control. A four by four latin square design was used, employing four rumen-fistulated cows. Cows were fed a standard TMR (total mixed ration) for at least 7 days prior to the start of the experiment, and were assigned to one of the following four 21 day ration sequences: ABCD, BCDA, CDAB, and DABC, where A, B, C, and D are as follows: (A) control (standard TMR); (B) Monensin (control diet plus 200 mg/kg monensin); (C) Surfactant (control diet plus 316 mg/kg Surfactant); (D) Essential Oil (control diet plus 5 mg/kg Essential Oil).
as §2
Rumen fluid pH and volatile fatty acids (VEA) were measured.

[8] = tested on: rumen-fistulated cows; experiment: Daily milk production and feed consumption; type: in vivo; conditions: by treatment
Description: as §3

monensin sodium was tested, and the DMD % ([1]; Dry Matter Digestibility) was 19.4^ad %, the Acetic ([1]; VFA) was 60.5 mmol/100 mmol and the Prop ([1]; VFA) was 22.4^ab mmol/100 mmol. For the same substance, the i-But ([1]; VFA) was 4.1^bc mmol/100 mmol, the i-Val ([1]; VFA) was 1.5^abd mmol/100 mmol and the n-But ([1]; VFA) was 10.2 mmol/100 mmol. For the same substance, the n-Val ([1]; VFA) was 1.2^abc mmol/100 mmol, the “Mean Gas ml 0–6 hr” value ([1]; calculated as increase over negative Control) was −0.9^b ml and the VFA total ([1]; total yields) was 41.6^b mmol/L. For the same substance, the “Baseline-corrected Ammonia post incubation” value [2] was 27.49^a mg/L, the “Baseline-corrected percent Ammonia reduction with Top Soy relative to SBM” value [2] was 45.26% and the Acetic [3] was 58.62^a molar percentage. The Prop [3] was 25.51^a molar percentage, the VFA total [3] was 75.03^c mmol/L and the i-But [3] was 1.18 molar percentage. For the same substance, the i-Val [3] was 1.44^b molar percentage, the n-But [3] was 12.09^bc molar percentage and the n-Val [3] was 1.16^c molar percentage. The Acetic ([4]; VFA) was 60.97^ab molar %, the Prop ([4]; VFA) was 20.82^b molar % and the i-But ([4]; VFA) was 1.06^c molar %. The i-Val ([4]; VFA) was 4.65^a molar %, the n-But ([4]; VFA) was 10.79 molar % and the n-Val ([4]; VFA) was 1.71 molar %. The “Mean Gas ml 0–6 hr” value ([4]; calculated as increase over Control, 6.6 mg/L monensin, 6 g/L lipid) was 5.31^e ml, the DMD % ([4]; dry matter disappearance) was 43.48^a % and the “VFA, moles” value ([4]; total VFA production) was 52.51^a moles. The “pH at T0” value [5] was 6.31, the DMD % ([5]; 6 hours at 39° C.) was 40.43% and the “Redox (seconds) at T0” value ([5]; cell viability) was 30 s. For the same substance, the GAS [6] was 10.39^c ml, the “Rumen pH” value ([7]; by treatment across all time points, 21 day ration, monensin 200 mg/kg, Surfactant 316 mg/kg, Essential Oil 5 mg/kg diet) was 6.07 and the “Acetic (acetic acid)” value ([7]; rumen fluid by treatment) was 57.90^b molar percentage. The “Prop (propionic acid)” value ([7]; rumen fluid by treatment) was 24.91^c molar percentage, the VFA total ([7]; rumen fluid by treatment) was 102.64^b mmol/L and the “i-But (i-butyric acid)” value ([7]; rumen fluid by treatment) was 0.95^b molar percentage. The “i-Val (i-valeric acid)” value ([7]; rumen fluid by treatment) was 1.08^c molar percentage, the “n-But (n-butyric acid)” value ([7]; rumen fluid by treatment) was 12.33 molar percentage and the “n-Val (n-valeric acid)” value ([7]; rumen fluid by treatment) was 2.82^b molar percentage. For the same substance, the “Molar yields of propionate” value ([7]; rumen fluid by treatment, control 24.81) was 25.56, the “DMI (dry matter intake)” value [8] was 24.7^ab kg/day and the Milk [8] was 43.7 kg/day. For the same substance, the “Milk/kg DMI” value [8] was 1.77.
